In brackets after ≈: the same amount, converted by molar mass. Where two headings read alike, the source gives them in different places. Non-standard residues stand in square brackets, D forms with d. Residues, ends and D or L forms follow the SMILES beside them. Orn = NCCC[C@H](N)C(=O)O
How the values were obtained:
[1] = system: C. neoformans strains 1841, H99, and KN99α; test: Broth microdilution assay (MIC); format: cell-based, Cryptococcus neoformans
[2] = system: C. neoformans 1841 (serotype D)
[3] = system: C. neoformans H99 (serotype A)
[4] = system: C. neoformans KN99α (serotype A, mating type MATα)
[5] = broth microdilution, 50% SAB in phosphate buffer pH 7.5, 5 × 10^4 CFU/mL, 30°C, read after 24 h, mean of six replicates (n = 6)
[6] = broth microdilution, 50% SAB in phosphate buffer pH 7.5, 5 × 10^4 CFU/mL, 30°C, read after 48 h, n = 6
[7] = broth microdilution, 50% SAB in phosphate buffer, 30°C, read after 24 h, n = 6
[8] = broth microdilution, 50% SAB in phosphate buffer, 30°C, read after 48 h, n = 6
[9] = strains 1841, H99, and KN99α, 24 h
[10] = 1841 (serotype D, 24 h, pH 7.5)
[11] = 1841 (serotype D, 48 h, pH 7.5)
[12] = KN99α (serotype A, mating type MATα, 24 h)
[13] = KN99α (serotype A, mating type MATα, 48 h)

CC[C@H](C)[C@H](NC(=O)[C@@H]1CCCN1C(=O)[C@H](CCCNC(=N)N)NC(=O)[C@@H]1CCCN1C(=O)[C@@H]1CCCN1C(=O)[C@@H](NC(=O)[C@@H]1CCCN1C(=O)[C@H](CCCNC(=N)N)NC(=O)[C@@H]1CCCN1C(=O)[C@H](CC(C)C)NC(=O)[C@H](Cc1ccc(O)cc1)NC(=O)[C@H](CO)NC(=O)CNC(=O)[C@H](CCCCN)NC(=O)[C@H](CC(=O)O)NC(=O)[C@@H](N)C(C)C)[C@@H](C)O)C(=O)N[C@@H](Cc1ccc(O)cc1)C(=O)N[C@@H](CC(N)=O)C(=O)N[C@@H](CCCNC(=N)N)C(=O)N[C@@H](CC(N)=O)C(=O)O [Pyrrhocoricin, reference compound] (H-VDKGSYLPRPTPPRPIYNRN-OH)
MIC [1]: > 55 µM | MIC (μmol/L) 1841 24 h [2, 5]: >55 µmol/L | MIC (μmol/L) 1841 48 h [2, 6]: >55 µmol/L | MIC (μmol/L) H99 24 h [3, 7]: >55 µmol/L | MIC (μmol/L) H99 48 h [3, 8]: >55 µmol/L | MIC (μmol/L) KN99α 24 h [4, 7]: >55 µmol/L | MIC (μmol/L) KN99α 48 h [4, 8]: >55 µmol/L

CC[C@H](C)[C@H](NC(=O)[C@@H]1CCCN1C(=O)[C@H](CCCNC(=N)N)NC(=O)[C@@H]1CCCN1C(=O)[C@H](Cc1c[nH]cn1)NC(=O)[C@H](CO)NC(=O)[C@@H](NC(=O)[C@@H]1CCCN1C(=O)[C@H](CCCNC(=N)N)NC(=O)[C@@H]1CCCN1C(=O)[C@H](CO)NC(=O)[C@H](Cc1ccc(O)cc1)NC(=O)[C@@H]1CCCN1C(=O)[C@H](CCCNC(=N)N)NC(=O)[C@@H]1CCCN1C(=O)[C@H](CCCCN)NC(=O)CN)[C@@H](C)O)C(=O)N[C@@H](CCCNC(=N)N)C(=O)N[C@H](C(=O)O)C(C)C [Drosocin, reference compound] (H-GKPRPYSPRPTSHPRPIRV-OH)
MIC [1, 9]: > 58 µM | MIC (μmol/L) 1841 24 h [2, 10]: 29 µmol/L (≈ 63.8 µg/mL) | MIC (μmol/L) 1841 48 h [2, 11]: 58 µmol/L (≈ 128 µg/mL) | MIC (μmol/L) H99 24 h ([3]; H99 (serotype A, 24 h)): 58 µmol/L (≈ 128 µg/mL) | MIC (μmol/L) H99 48 h ([3]; H99 (serotype A, 48 h)): >58 µmol/L | MIC (μmol/L) KN99α 24 h [4, 12]: >58 µmol/L | MIC (μmol/L) KN99α 48 h [4, 13]: >58 µmol/L

CC[C@H](C)[C@H](NC(=O)[C@@H](CCCNC(=N)N)NC(=O)[C@H](CCCNC(=N)N)NC(=O)[C@@H]1CCCN1C(=O)[C@@H]1CCCN1C(=O)[C@H](CCCNC(=N)N)NC(=O)[C@@H]1CCCN1C(=O)[C@H](CCCNC(=N)N)NC(=O)[C@@H]1CCCN1C(=O)[C@H](CC(C)C)NC(=O)[C@H](Cc1ccc(O)cc1)NC(=O)[C@@H]1CCCN1C(=O)[C@@H]1CCCN1C(=O)[C@H](CCCCN)NC(=O)[C@H](CC(=O)O)NC(=O)[C@@H](N)C(C)C)C(=O)N[C@@H](Cc1ccc(O)cc1)C(=O)N[C@@H](CC(N)=O)C(=O)N[C@H](CCCNC(=N)N)C(N)=O [Onc112] (H-VDKPPYLPRPRPPR[dR]IYN[dR]-NH2)
MIC [1, 9]: 1.6 to 6.7 µM | MIC (μmol/L) 1841 24 h [2, 10]: 3.3 µmol/L (≈ 7.89 µg/mL) | MIC (μmol/L) 1841 48 h [2, 11]: 6.7 µmol/L (≈ 16 µg/mL) | MIC (mg/L) H99 24 h ([3]; H99 (serotype A, 24 h)): 8 to 16 mg/L | MIC (μmol/L) H99 24 h ([3]; H99 (serotype A, 24 h)): 3.3 to 6.7 µmol/L | MIC (μmol/L) H99 48 h ([3]; H99 (serotype A, 48 h)): 6.7 µmol/L (≈ 16 µg/mL) | MIC (mg/L) KN99α 24 h [4, 12]: 8 to 16 mg/L | MIC (μmol/L) KN99α 24 h [4, 12]: 3.3 to 6.7 µmol/L | MIC (mg/L) KN99α 48 h [4, 13]: 16 to 32 mg/L | MIC (μmol/L) KN99α 48 h [4, 13]: 6.7 to 13 µmol/L

RRIRPRPPRLPRPRPRPLPFPRPGPRPIPRPLPFPRPGPRPIPRPLPFPRPGPRPIPRP-OH [Bac7 1–60, reference compound]
MIC [1]: 1.1 µM | MIC (μmol/L) 1841 24 h [2, 5]: 1.1 µmol/L | MIC (μmol/L) 1841 48 h [2, 6]: 1.1 µmol/L | MIC (μmol/L) H99 24 h [3, 7]: 1.1 µmol/L | MIC (μmol/L) H99 48 h [3, 8]: 1.1 µmol/L | MIC (μmol/L) KN99α 24 h [4, 7]: 1.1 µmol/L | MIC (mg/L) KN99α 48 h [4, 8]: 8 to 16 mg/L | MIC (μmol/L) KN99α 48 h [4, 8]: 1.1 to 2.2 µmol/L

CC[C@H](C)[C@H](NC(=O)[C@H](CCCN)NC(=O)[C@@H](NC(=O)[C@@H](N)CCCN)[C@@H](C)CC)C(=O)N[C@@H](CCCN)C(=O)N[C@@H](CCCNC(=N)N)C(=O)N1CCC[C@H]1C(=O)N[C@H](C(=O)N[C@@H](Cc1ccc(O)cc1)C(=O)N[C@@H](CCCN)C(=O)N1CCC[C@H]1C(=O)N[C@@H](CCCNC(=N)N)C(=O)N1CCC[C@H]1C(=O)N[C@@H](CCCNC(=N)N)C(=O)N1CCC[C@H]1C(=O)N1CCC[C@H]1C(=O)N[C@@H](Cc1c[nH]cn1)C(=O)N1CCC[C@H]1C(=O)N[C@@H](CCCNC(=N)N)C(=O)N[C@@H](CCCNC(=N)N)C(=O)O)C(C)C [Api822] (H-[Orn]I[Orn]I[Orn]RPVY[Orn]PRPRPPHPRR-OH)
MIC [1, 9]: 1.6 to 6.7 µM | MIC (μmol/L) 1841 24 h [2, 10]: 3.2 µmol/L (≈ 7.88 µg/mL) | MIC (μmol/L) 1841 48 h [2, 11]: 3.2 µmol/L (≈ 7.88 µg/mL) | MIC (μmol/L) H99 24 h ([3]; H99 (serotype A, 24 h)): 3.2 µmol/L (≈ 7.88 µg/mL) | MIC (μmol/L) H99 48 h ([3]; H99 (serotype A, 48 h)): 3.2 µmol/L (≈ 7.88 µg/mL) | MIC (μmol/L) KN99α 24 h [4, 12]: 3.2 µmol/L (≈ 7.88 µg/mL) | MIC (μmol/L) KN99α 48 h [4, 13]: 3.2 µmol/L (≈ 7.88 µg/mL)
